In general, mortality refers to the share of the test organisms that died.

For assay [1], the system named is Beet Armyworm (Spodoptera exigua). As to the kind of experiment: Bioassay on Beet Armyworm (BAW), 128-well diet tray assay. It is filed as in vivo. As to conditions: Spodoptera exigua, 168 h; 50 μg/cm^2 on artificial diet, second instar larvae, five to seven days; read-out: BAW % Control (or Mortality) rating.
Assay [2] concerns Cabbage Looper (Trichoplusia ni). As to the kind of experiment: Bioassay on Cabbage Looper (CL), 128-well diet tray assay. The format is in vivo. The conditions noted are these: 168 h, 50 μg/cm^2 on artificial diet, second instar larvae, five to seven days, read-out: CL % Control (or Mortality) rating. In outline:
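Percent mortality, averaged across eight replicate wells, after second-instar larvae (1–5 per well) fed for five to seven days on diet dosed at 50 μg/cm^2. Compound was applied in acetone-water 90:10 and dried; trays kept vented at 25° C under 14:10 photoperiod.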

As for `O=C(NNC1CCCCC1)c1ccc(/C(F)=C/C(c2cc(Cl)c(Cl)c(Cl)c2)C(F)(F)F)cc1C(F)(F)F` (stereo not drawn) [F137, (Z)—N′-Cyclohexyl-4-(1,4,4,4-tetrafluoro-3-(3,4,5-trichlorophenyl)but-1-en-1-yl)-2-(trifluoromethyl)benzohydrazide], the mortality at 50 µg/cm2 in assay [1] and in assay [2] was 50 to 100% each time.
On to `O=C(NNC1CCC1)c1ccc(/C(F)=C/C(c2cc(Cl)c(Cl)c(Cl)c2)C(F)(F)F)cc1C(F)(F)F` (stereo not drawn) [F138, (Z)—N′-Cyclobutyl-4-(1,4,4,4-tetrafluoro-3-(3,4,5-trichlorophenyl)but-1-en-1-yl)-2-(trifluoromethyl)benzohydrazide], for which the mortality at 50 µg/cm2 in assay [1] and in assay [2] was 50 to 100% each time.
Consider `CC(C)(C)CNNC(=O)c1ccc(/C(F)=C/C(c2cc(Cl)c(Cl)c(Cl)c2)C(F)(F)F)cc1C(F)(F)F` (stereo not drawn) [F140, (Z)—N′-Neopentyl-4-(1,4,4,4-tetrafluoro-3-(3,4,5-trichlorophenyl)but-1-en-1-yl)-2-(trifluoromethyl)benzohydrazide], for which the mortality at 50 µg/cm2 in assay [1] and in assay [2] was 50 to 100% throughout.
On to `O=C(NNc1cccc(C(F)(F)F)n1)c1ccc(/C(F)=C/C(c2cc(Cl)c(Cl)c(Cl)c2)C(F)(F)F)cc1C(F)(F)F` (stereo not drawn) [F141, (Z)-4-(1,4,4,4-Tetrafluoro-3-(3,4,5-trichlorophenyl)but-1-en-1-yl)-2-(trifluoromethyl)-N′-(6-(trifluoromethyl)pyridin-2-yl)benzohydrazide], for which the mortality at 50 µg/cm2 in assay [1] and in assay [2] was 50 to 100% throughout.
Regarding `N#CCCNNC(=O)c1ccc(/C(F)=C/C(c2cc(Cl)c(Cl)c(Cl)c2)C(F)(F)F)cc1C(F)(F)F` (stereo not drawn) [F142, (Z)—N′-(2-Cyanoethyl)-4-(1,4,4,4-tetrafluoro-3-(3,4,5-trichlorophenyl)but-1-en-1-yl)-2-(trifluoromethyl)benzohydrazide], the mortality at 50 µg/cm2 in assay [1] and in assay [2] was 50 to 100% each time.
Regarding `CN(C)CCNNC(=O)c1ccc(/C(F)=C/C(c2cc(Cl)c(Cl)c(Cl)c2)C(F)(F)F)cc1C(F)(F)F` (stereo not drawn) [F143, (Z)—N′-(2-(Dimethylamino)ethyl)-4-(1,4,4,4-tetrafluoro-3-(3,4,5-trichlorophenyl)but-1-en-1-yl)-2-(trifluoromethyl)benzohydrazide], the mortality at 50 µg/cm2 in assay [1] lay in the range of 50 to 100%; in assay [2], 0 to 50%.
As for `CN(NC(=O)c1ccc(/C(F)=C/C(c2cc(Cl)c(Cl)c(Cl)c2)C(F)(F)F)cc1C(F)(F)F)C1CCCC1` (stereo not drawn) [F144, (Z)—N′-Cyclopentyl-N′-methyl-4-(1,4,4,4-tetrafluoro-3-(3,4,5-trichlorophenyl)but-1-en-1-yl)-2-(trifluoromethyl)benzohydrazide], the mortality at 50 µg/cm2 in assay [1] and in assay [2] was 50 to 100% throughout.
`CC(C)CCNNC(=O)c1ccc(/C(F)=C/C(c2cc(Cl)c(Cl)c(Cl)c2)C(F)(F)F)cc1C(F)(F)F` (stereo not drawn) [F145, (Z)—N′-Isopentyl-4-(1,4,4,4-tetrafluoro-3-(3,4,5-trichlorophenyl)but-1-en-1-yl)-2-(trifluoromethyl)benzohydrazide]: the mortality at 50 µg/cm2 in assay [1] and in assay [2] was 50 to 100% each time.
Consider `O=C(NNC1CCC(F)(F)CC1)c1ccc(/C(F)=C/C(c2cc(Cl)c(Cl)c(Cl)c2)C(F)(F)F)cc1C(F)(F)F` (stereo not drawn) [F146, (Z)—N′-(4,4-Difluorocyclohexyl)-4-(1,4,4,4-tetrafluoro-3-(3,4,5-trichlorophenyl)but-1-en-1-yl)-2-(trifluoromethyl)benzohydrazide], for which the mortality at 50 µg/cm2 in assay [1] and in assay [2] was 50 to 100% in each case.
Take `NN(CC(=O)NCC(F)(F)F)C(=O)c1ccc(/C(F)=C/C(c2cc(Cl)c(Cl)c(Cl)c2)C(F)(F)F)cc1C(F)(F)F` (stereo not drawn) [F149, (Z)-2-(1-(4-(1,4,4,4-tetrafluoro-3-(3,4,5-trichlorophenyl)but-1-en-1-yl)-2-(trifluoromethyl)benzoyl)hydrazinyl)-N-(2,2,2-trifluoroethyl)acetamide]: the mortality at 50 µg/cm2 in assay [1] and in assay [2] was 50 to 100% throughout.
Take `C#CCN(NC(=O)c1ccc(/C(F)=C/C(c2cc(Cl)c(Cl)c(Cl)c2)C(F)(F)F)cc1C(F)(F)F)c1ncccn1` (stereo not drawn) [F150, (Z)—N′-(Prop-2-yn-1-yl)-N′-(pyrimidin-2-yl)-4-(1,4,4,4-tetrafluoro-3-(3,4,5-trichlorophenyl)but-1-en-1-yl)-2-(trifluoromethyl)benzohydrazide]: the mortality at 50 µg/cm2 in assay [1] and in assay [2] was 50 to 100% each time.
As to `CN(NC(=O)c1ccc(/C(F)=C/C(c2cc(Cl)cc(Cl)c2)C(F)(F)F)cc1C(F)(F)F)c1ncccn1` (stereo not drawn) [F151, (Z)-4-(3-(3,5-Dichlorophenyl)-1,4,4,4-tetrafluorobut-1-en-1-yl)-N′-methyl-N′-(pyrimidin-2-yl)-2-(trifluoromethyl)benzohydrazide], the mortality at 50 µg/cm2 in assay [1] and in assay [2] was 50 to 100% throughout.
On to `CN(CCCC(F)(F)F)NC(=O)c1ccc(/C(F)=C/C(c2cc(Cl)c(Cl)c(Cl)c2)C(F)(F)F)cc1C(F)(F)F` (stereo not drawn) [F155, (Z)—N′-Methyl-4-(1,4,4,4-tetrafluoro-3-(3,4,5-trichlorophenyl)but-1-en-1-yl)-N′-(4,4,4-trifluorobutyl)-2-(trifluoromethyl)benzohydrazide], for which the mortality at 50 µg/cm2 in assay [1] and in assay [2] was 50 to 100% throughout.
`Nc1ccccc1NNC(=O)c1ccc(/C(F)=C/C(c2cc(Cl)c(Cl)c(Cl)c2)C(F)(F)F)cc1C(F)(F)F` (stereo not drawn) [F156, (Z)—N′-(2-aminophenyl)-4-(1,4,4,4-tetrafluoro-3-(3,4,5-trichlorophenyl)but-1-en-1-yl)-2-(trifluoromethyl)benzohydrazide]: the mortality at 50 µg/cm2 in assay [1] and in assay [2] was 50 to 100% throughout.
With `CC(C)CNNC(=O)c1ccc(/C(F)=C/C(c2cc(Cl)c(Cl)c(Cl)c2)C(F)(F)F)cc1C(F)(F)F` (stereo not drawn) [F157, (Z)—N′-Isobutyl-4-(1,4,4,4-tetrafluoro-3-(3,4,5-trichlorophenyl)but-1-en-1-yl)-2-(trifluoromethyl)benzohydrazide], the mortality at 50 µg/cm2 in assay [1] and in assay [2] was 50 to 100% in each case.
On to `CN(CC1CC1)NC(=O)c1ccc(/C(F)=C/C(c2cc(Cl)c(Cl)c(Cl)c2)C(F)(F)F)cc1C(F)(F)F` (stereo not drawn) [F159, (Z)—N′-(Cyclopropylmethyl)-N′-methyl-4-(1,4,4,4-tetrafluoro-3-(3,4,5-trichlorophenyl)but-1-en-1-yl)-2-(trifluoromethyl)benzohydrazide], for which the mortality at 50 µg/cm2 in assay [1] and in assay [2] was 50 to 100% throughout.
Turning to `CC(C)CCN(C)NC(=O)c1ccc(/C(F)=C/C(c2cc(Cl)c(Cl)c(Cl)c2)C(F)(F)F)cc1C(F)(F)F` (stereo not drawn) [F160, (Z)—N′-Isopentyl-N′-methyl-4-(1,4,4,4-tetrafluoro-3-(3,4,5-trichlorophenyl)but-1-en-1-yl)-2-(trifluoromethyl)benzohydrazide], the mortality at 50 µg/cm2 in assay [1] and in assay [2] was 50 to 100% each time.
In the case of `O=C(NNCC1CC1)c1ccc(/C(F)=C/C(c2cc(Cl)c(Cl)c(Cl)c2)C(F)(F)F)cc1C(F)(F)F` (stereo not drawn) [F162, (Z)—N′-(Cyclopropylmethyl)-4-(1,4,4,4-tetrafluoro-3-(3,4,5-trichlorophenyl)but-1-en-1-yl)-2-(trifluoromethyl)benzohydrazide], the mortality at 50 µg/cm2 in assay [1] and in assay [2] was 50 to 100% throughout.
Turning to `O=C(NNc1ncccn1)c1ccc(/C(F)=C/C(c2cc(Br)c(F)c(Br)c2)C(F)(F)F)cc1C(F)(F)F` (stereo not drawn) [F163, (Z)-4-(3-(3,5-Dibromo-4-fluorophenyl)-1,4,4,4-tetrafluorobut-1-en-1-yl)-N′-(pyrimidin-2-yl)-2-(trifluoromethyl)benzohydrazide], the mortality at 50 µg/cm2 in assay [1] and in assay [2] was 50 to 100% throughout.
For the molecule `CN(NC(=O)c1ccc(/C(F)=C/C(c2cc(Cl)c(Cl)c(Cl)c2)C(F)(F)F)cc1C(F)(F)F)c1ncc([N+](=O)[O-])cn1` (stereo not drawn) [F164, (Z)—N′-Methyl-N′-(5-nitropyrimidin-2-yl)-4-(1,4,4,4-tetrafluoro-3-(3,4,5-trichlorophenyl)but-1-en-1-yl)-2-(trifluoromethyl)benzohydrazide], the mortality at 50 µg/cm2 in assay [1] and in assay [2] was 50 to 100% each time.
As to `O=C(NNc1cccc(Br)n1)c1ccc(/C(F)=C/C(c2cc(Cl)c(Cl)c(Cl)c2)C(F)(F)F)cc1C(F)(F)F` (stereo not drawn) [F165, (Z)—N′-(6-Bromopyridin-2-yl)-4-(1,4,4,4-tetrafluoro-3-(3,4,5-trichlorophenyl)but-1-en-1-yl)-2-(trifluoromethyl)benzohydrazide], the mortality at 50 µg/cm2 in assay [1] and in assay [2] was 50 to 100% throughout.
On to `CN(NC(=O)c1ccc(/C(F)=C/C(c2cc(Cl)c(Cl)c(Cl)c2)C(F)(F)F)cc1C(F)(F)F)c1ncc(N)cn1` (stereo not drawn) [F166, (Z)—N′-(5-Aminopyrimidin-2-yl)-N′-methyl-4-(1,4,4,4-tetrafluoro-3-(3,4,5-trichlorophenyl)but-1-en-1-yl)-2-(trifluoromethyl)benzohydrazide], for which the mortality at 50 µg/cm2 in assay [1] and in assay [2] was 50 to 100% each time.
For the molecule `O=C(NNc1ncccn1)c1ccc(/C(F)=C/C(c2ccc(C(F)(F)F)c(Cl)c2)C(F)(F)F)cc1C(F)(F)F` (stereo not drawn) [F167, (Z)-4-(3-(3-Chloro-4-(trifluoromethyl)phenyl)-1,4,4,4-tetrafluorobut-1-en-1-yl)-N′-(pyrimidin-2-yl)-2-(trifluoromethyl)benzohydrazide], the mortality at 50 µg/cm2 in assay [1] and in assay [2] was 50 to 100% each time.
As to `C=Cc1cc(C(/C=C(\F)c2ccc(C(=O)NNc3ncccn3)c(C(F)(F)F)c2)C(F)(F)F)cc(Cl)c1Cl` (stereo not drawn) [F168, (Z)-4-(3-(3,4-dichloro-5-vinylphenyl)-1,4,4,4-tetrafluorobut-1-en-1-yl)-N′-(pyrimidin-2-yl)-2-(trifluoromethyl)benzohydrazide], the mortality at 50 µg/cm2 in assay [1] and in assay [2] was 50 to 100% throughout.

The values above are taken from patent publication US10638756B2, “Molecules having pesticidal utility, and intermediates, compositions, and processes, related thereto” (Dow AgroSciences LLC, priority 2017, dated 2020).
